Measured values as given in article PMC3912631, “Bench to Bed Evidences for Pharmacokinetic and Pharmacodynamic Interactions Involving Oseltamivir and Chinese Medicine” (Evidence-based Complementary and Alternative Medicine : eCAM, 2014).
Read-outs that look alike come from different tables or passages of the source.

Assays:
[1] = Human crossover pharmacokinetic interaction study of WM (Tamiflu) alone or with CMF1; assay type: in vivo, human (Chinese male healthy volunteers); details: human; for half-life: read-out: T 1/2 (terminal half-life) (converted); for Tmax: read-out: T max
Procedure: Normal healthy Chinese male subjects aged 20–45 years were recruited in this study. […] The study was conducted using a single-center, randomized, open-labeled, multiple dose (5 days), two-treatment, two-period, two-sequence crossover design. […] Each subject underwent two treatment sessions (periods I and II), and each session consists of 5-day treatment (twice daily for day 1 to day 4, morning dose for day 5). The two treatment sessions were separated by a washout period of 2 weeks. 250 mL water was used for WM (Tamiflu capsule, 75 mg per dose) administration. […] Drinking water was not allowed from 1 h predose to 1 h postdose except that needed for drug dosing. […] All blood and urine collection was taken on day 5 of each treatment session. […] Blood samples were collected from a catheter, which was placed in the forearm vein before dosing. At the specified time, 5 mL of blood was drawn (except for 0 time and at 2 h which was 10 mL each for additional antiviral activity determination) and stored in vacuette lithium heparin tubes (Greiner Bio-One). […] Plasma samples were collected after centrifugation and then stored at −80°C until assay. Urine was also collected (and the volume was recorded) at pre-dose, 0–4, 4–8, and 8–12 h intervals. […] After mixing and centrifugation, the supernatant was loaded in prewashed Oasis MCX cartridge (1 cc, 30 mg, Waters) and the cartridge was rinsed subsequently with 1% formic acid, water, and methanol followed by vacuum dried for 20 min. The analytes were then eluted with 1 mL of 1% ammonia in methanol. The eluting solvent was dried by a vacuum concentrator and the residue was reconstituted with 200 μL of 0.1% formic acid : methanol (1 : 1 v/v) prior to HPLC/MS/MS analysis using an ABI 2000 Q-Trap triple quadrupole mass spectrometer (Applied Biosystems) coupled with PE-200 series micropumps and autosampler (Perkin-Elmer). […] In human study, trough concentration (C trough) was defined as the minimum concentration obtained and was obtained at 12 h post-dose. […] In human studies, the comparison of WM + CMF1 to WM alone treatments was evaluated using a 90% confidence intervals (90% CI) approach (USFDA guideline, Drug Interactions Studies, September 2006). […] The statistical model included terms describing the effects attributable to sequence, subject (nested in sequence), period, and treatment (formulation). […] Difference in the median T max between both treatments was evaluated using Wilcoxon signed-rank test. For comparison of the human antiviral activities, one-way analysis of variance in conjunction with post hoc Turkey's range test was performed.

H3N2 = system: H3N2; design: method as in PMID 20215135; details: read-out: inhibitory concentrations (IC50) against H3N2; cited from earlier work
[2] = cited from earlier work
influenza virus strains = system: influenza virus strains; design: method as in PMID 20215135; details: read-out: inhibitory concentrations (IC50) against influenza virus strains; cited from earlier work
[3] = geometric mean ratio of (WM + CMF1)/WM
[4] = male, in vivo, 75 mg, day 5, WM alone, n = 14, arithmetic mean ± SD
[5] = male, in vivo, day 5, WM + CMF1, n = 14, arithmetic mean ± SD

For `CCC(CC)O[C@@H]1C=C(C(=O)O)C[C@H](N)[C@H]1NC(C)=O` [OC, oseltamivir carboxylate], the “lowering of 12 h cumulative amount excreted in urine by co-administration of CMF1” value [1] was ~ 14%, the “12 h Cum. amt. in urine, geometric mean” value ([1]; WM + CMF1, n = 14) was 61224.10 µg and the “12 h Cum. amt. in urine, geometric mean” value ([1]; WM alone, n = 14) was 71215.61 µg. The “time to reach peak maximum in plasma” value ([1]; approximate value) was 4 to 5 h, the “12 h Cum. amt. in urine” value ([1]; day 5, WM + CMF1, n = 14, arithmetic mean ± SD) was 62087 ± 10741 µg and the “12 h Cum. amt. in urine” value ([1]; day 5, WM alone, n = 14, arithmetic mean ± SD) was 72851 ± 15312 µg. For the same compound, the “GM Ratio of 12 h Cum. amt. in urine” value [1, 3] was 85.97%, the “GM Ratio of AUC0–12 h” value [1, 3] was 91.32% and the “GM Ratio of C max” value [1, 3] was 91.32%. For the same compound, the “concentration of OC in plasma relative to the respective OA” value ([1]; oral WM) was ~ 10 fold, the AUC(0-t) ([1]; male, in vivo, 75 mg, WM alone, n = 14, read-out: AUC0–12 h, geometric mean) was 4450 ng·h/mL and the Cmax ([1]; male, in vivo, 75 mg, WM alone, n = 14, read-out: C max, geometric mean) was 526 ng/mL. For the same compound, the CL renal ([1]; male, in vivo, 75 mg, approximate value, read-out: renal clearance (converted)) was roughly 267 mL/min, the concentration at 12 h ([1]; male, in vivo, 75 mg, day 5, WM alone (Tamiflu 75 mg bid), n = 14, arithmetic mean ± SD, read-out: C trough (plasma concentration at 12 h postdose)) was 207 ± 67.7 ng/mL and the AUC(0-t) ([1]; male, in vivo, 75 mg, day 5, WM alone, n = 14, arithmetic mean ± SD, read-out: AUC0–12 h) was 4580 ± 1160 ng·h/mL. For the same compound, the Cmax ([1]; male, in vivo, 75 mg, day 5, WM alone, n = 14, arithmetic mean ± SD, read-out: C max) was 536 ± 102 ng/mL, the CL renal ([1]; male, in vivo, 75 mg, day 5, WM alone, n = 14, arithmetic mean ± SD, read-out: Renal clearance (converted)) was 272 mL/min and the AUC(0-t) ([1]; male, in vivo, WM + CMF1, n = 14, read-out: AUC0–12 h, geometric mean) was 4070 ng·h/mL. For the same compound, the Cmax ([1]; male, in vivo, WM + CMF1, n = 14, read-out: C max, geometric mean) was 481 ng/mL, the concentration at 12 h ([1]; male, in vivo, both WM and WM + CMF1 treatments, approximate value, read-out: mean C trough) was roughly 200 ng/mL and the concentration at 12 h ([1]; male, in vivo, both WM and WM + CMF1 treatments, read-out: mean C trough, molar equivalent) was roughly 704 nM. The concentration at 2 h ([1]; male, in vivo, both treatments (WM and WM + CMF1), read-out: 2 h post-dose plasma concentration) was 410 to 436 ng/mL, the concentration at 12 h ([1]; male, in vivo, day 5, WM + CMF1 (10 g per dose), n = 14, arithmetic mean ± SD, read-out: C trough (plasma concentration at 12 h postdose)) was 195 ± 51.2 ng/mL and the AUC(0-t) ([1]; male, in vivo, day 5, WM + CMF1, n = 14, arithmetic mean ± SD, read-out: AUC0–12 h) was 4140 ± 783 ng·h/mL. It also gave a Cmax ([1]; male, in vivo, day 5, WM + CMF1, n = 14, arithmetic mean ± SD, read-out: C max) of 487 ± 82.7 ng/mL, a CL renal ([1]; male, in vivo, day 5, WM + CMF1, n = 14, arithmetic mean ± SD, read-out: Renal clearance (converted)) of 257 mL/min and a half-life [1, 4] of 5.16 ± 1.27 h. It also gave a Tmax [1, 4] of 4.21 ± 0.97 h, a half-life [1, 5] of 5.7 ± 1.35 h and a Tmax [1, 5] of 3.5 ± 0.94 h. For the same compound, the IC50 (H3N2) was 0.2 to 0.6 nM, the “effect of food on bioavailability” value [2] was “no significant effect” and the “maximum plasma oseltamivir carboxylate concentration” value ([2]; following 50 mg doses) was “about 230 μg/L”. For the same compound, the “absolute oral bioavailability of OC from orally administered OA” value ([2]; oral OA) was 80%, the half-life ([2]; oral OA) was 6 to 10 h and the IC50 (influenza virus strains) was 0.01 to 69.2 nM.
